According to US20260001928A1 (CORTERIA PHARMACEUTICALS, priority 2022, published 2026):
*1 amine or outer side, *2 acyl side, *3 side chain or, on linkers, in order; H or OH if unused. Where a SMILES comes first, the peptide text is derived from it. Side-chain parts run from the residue outwards. [ ]: non-standard residue; d: D form. The star is where a group is joined. C20 diacid = O=C(O)CCCCCCCCCCCCCCCCCCC(=O)*; C18 diacid = O=C(O)CCCCCCCCCCCCCCCCC(=O)*; γGlu = O=C(O)[C@H](CCC(=O)[*:2])N[*:1]; NMeI = CC[C@H](C)[C@H](NC)C(=O)O; αMeL = CC(C)C[C@](C)(N)C(=O)O; AEEA = NCCOCCOCC(=O)O; Aib = CC(C)(N)C(=O)O

Assays:
CFR1R receptor = target: T1, CFR1R receptor (Homo sapiens, UniProt P34998); assay: Activity at anti-target CFR1R receptor, cAMP assay in CRF1R-overexpression CHO-K1 cells; format: cell-based; details: 100% = Sauvagine at 100 nM; for EC50: cAMP
T1 construct: host or cells: CHO-K1 (clone 2)
T1 sequence (P34998 24-415): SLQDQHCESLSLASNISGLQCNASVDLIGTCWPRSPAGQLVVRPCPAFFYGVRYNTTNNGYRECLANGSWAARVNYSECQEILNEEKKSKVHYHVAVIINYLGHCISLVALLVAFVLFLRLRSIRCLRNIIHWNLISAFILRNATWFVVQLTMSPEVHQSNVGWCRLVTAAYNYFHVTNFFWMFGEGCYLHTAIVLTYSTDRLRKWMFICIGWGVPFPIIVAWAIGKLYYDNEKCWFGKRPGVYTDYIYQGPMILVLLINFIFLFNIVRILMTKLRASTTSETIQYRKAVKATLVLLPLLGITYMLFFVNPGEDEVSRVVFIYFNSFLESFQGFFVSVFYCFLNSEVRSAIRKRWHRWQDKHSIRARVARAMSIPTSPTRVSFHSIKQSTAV
How it was run: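 Signal is normalised to 100 nM Sauvagine, taken as 100% activation, in clone 2 cells plated at a final 4000 cells/well from frozen stocks.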

[1] = Pharmacokinetics in male Sprague Dawley rats after subcutaneous administration; format: in vivo; details: plasma, rat
in vitro = assay: in vitro; parameters: dose or concentration left out as unconfirmed; details: dog, plasma
rat CRF2 a = target: T2, rat CRF2 a (Rattus norvegicus, UniProt P47866); assay: Activity at rat CRF2 a, cAMP assay in A7R5 rat aortic smooth muscle cells; format: cell-based; details: 0% HSA, 100% = Sauvagine at 100 nM
T2 construct: host or cells: A7R5 rat aortic smooth muscle cells
T2 sequence (P47866 27-431 isoform P47866-2 limits assumed): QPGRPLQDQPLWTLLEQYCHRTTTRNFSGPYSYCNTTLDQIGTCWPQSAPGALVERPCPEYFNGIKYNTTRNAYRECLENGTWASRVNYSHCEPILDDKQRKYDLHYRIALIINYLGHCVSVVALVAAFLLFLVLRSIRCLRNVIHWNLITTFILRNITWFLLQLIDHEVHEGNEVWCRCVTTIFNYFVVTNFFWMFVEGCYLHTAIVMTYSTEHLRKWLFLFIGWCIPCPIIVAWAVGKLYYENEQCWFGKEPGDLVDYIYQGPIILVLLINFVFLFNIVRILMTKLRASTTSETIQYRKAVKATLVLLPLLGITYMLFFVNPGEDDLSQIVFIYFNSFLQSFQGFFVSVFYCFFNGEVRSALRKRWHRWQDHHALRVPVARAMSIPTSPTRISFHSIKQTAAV
How it was run: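 cAMP response measured in frozen-stock A7R5 rat aortic smooth muscle cells, 5000 cells/well final. 100% activation defined by Sauvagine at 100 nM in control wells.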

[2] = In vitro plasma stability, minipig plasma; format: in vitro ADME; parameters: remaining at 2 h: dose or concentration left out as unconfirmed; details: Minipig PLM, 37° C.

Row | Structure (SMILES) | Emax (% I) (CFR1R receptor) | EC50 (CFR1R receptor) | AUC(0-t) ([1]; IV, 0.05 mg/kg) | half-life ([1]; IV, 0.05 mg/kg) | Tmax ([1]; SC, 0.1 mg/kg) | remaining at 2 h (in vitro) | half-life ([1]; SC, 0.1 mg/kg) | EC50 (rat CRF2 a) | % remaining at 2 hours [2] | remaining at 2 h ([2]; pig, plasma)
1 | CC[C@H](C)[C@H](NC)C(=O)N[C@H](C(=O)N[C@@H](CC(C)C)C(=O)N[C@@H](CO)C(=O)N[C@@H](CC(C)C)C(=O)N[C@@H](CC(=O)O)C(=O)N[C@@H](C(=O)N1CCC[C@H]1C(=O)N[C@H](C(=O)N[C@@H](CCCCN)C(=O)N[C@@H](CC(C)C)C(=O)N[C@@H](CCCCNC(=O)COCCOCCNC(=O)COCCOCCNC(=O)CC[C@H](NC(=O)CCCCCCCCCCCCCCCCC(=O)O)C(=O)O)C(=O)N[C@@H](CCCCN)C(=O)N[C@H](C(=O)N[C@@H](CC(C)C)C(=O)N[C@@H](CC(C)C)C(=O)N[C@@H](CCC(=O)O)C(=O)N[C@@H](CCC(N)=O)C(=O)N[C@@H](CCC(=O)O)C(=O)N[C@@H](CCCCN)C(=O)N[C@@H](CCC(N)=O)C(=O)N[C@@H](CCCCN)C(=O)N[C@@H](CCCCN)C(=O)N[C@@H](CCC(N)=O)C(=O)N[C@@H](CCCNC(=N)N)C(=O)N[C@@H](CCC(=O)O)C(=O)N[C@@H](CCC(N)=O)C(=O)N[C@@H](C)C(=O)N[C@@H](CCC(=O)O)C(=O)N[C@H](C(=O)N[C@@H](CC(N)=O)C(=O)NC(C)(C)C(=O)N[C@@H](CCC(N)=O)C(=O)N[C@H](C(=O)N[C@@H](CC(C)C)C(=O)N[C@@H](C)C(=O)N[C@@H](CCC(N)=O)C(=O)N[C@H](C(N)=O)C(C)C)[C@@H](C)CC)[C@@H](C)O)[C@@H](C)CC)[C@@H](C)CC)C(C)C)C(C)C [compound 118] (H-[NMeI]VLSLD[dV]PIKLK([AEEA-AEEA-γGlu-C18 diacid])KILLEQEKQKKQREQAETN[Aib]QILAQV-NH2) | 7 % I | > 250 nM | 3.9 µg·h/mL | 5.2 h | 8 h | – | 5.2 h | – | 126% | –
2 | CC[C@H](C)[C@H](NC)C(=O)N[C@H](C(=O)N[C@@H](CC(C)C)C(=O)N[C@@H](CO)C(=O)N[C@@H](CC(C)C)C(=O)N[C@@H](CC(=O)O)C(=O)N[C@@H](C(=O)N1CCC[C@H]1C(=O)N[C@H](C(=O)N[C@@H](CCCCN)C(=O)N[C@@H](CC(C)C)C(=O)N[C@@H](CCCCNC(=O)CC[C@H](NC(=O)CCCCCCCCCCCCCCCCCCC(=O)O)C(=O)O)C(=O)N[C@@H](CCCCN)C(=O)N[C@H](C(=O)N[C@@H](CC(C)C)C(=O)N[C@@H](CC(C)C)C(=O)N[C@@H](CCC(=O)O)C(=O)N[C@@H](CCC(N)=O)C(=O)N[C@@H](CCC(=O)O)C(=O)N[C@@H](CCCCN)C(=O)N[C@@H](CCC(N)=O)C(=O)N[C@@H](CCCCN)C(=O)NC(C)(C)C(=O)N[C@@H](CCC(N)=O)C(=O)N[C@@H](CCCNC(=N)N)C(=O)N[C@@H](CCC(=O)O)C(=O)N[C@@H](CCC(N)=O)C(=O)N[C@@H](C)C(=O)N[C@@H](CCC(=O)O)C(=O)N[C@H](C(=O)N[C@@H](CC(N)=O)C(=O)NC(C)(C)C(=O)N[C@@H](CCC(N)=O)C(=O)N[C@H](C(=O)N[C@@H](CC(C)C)C(=O)N[C@@H](C)C(=O)N[C@@H](CCC(N)=O)C(=O)N[C@H](C(N)=O)C(C)C)[C@@H](C)CC)[C@@H](C)O)[C@@H](C)CC)[C@@H](C)CC)C(C)C)C(C)C [compound 215] (H-[NMeI]VLSLD[dV]PIKLK([γGlu-C20 diacid])KILLEQEKQK[Aib]QREQAETN[Aib]QILAQV-NH2) | 19 % I | > 250 nM | 7.32 µg·h/mL | 8 h | 7 h | – | 10 h | – | – | –
3 | CC[C@H](C)[C@H](NC(C)=O)C(=O)N[C@H](C(=O)N[C@@H](CC(C)C)C(=O)N[C@@H](CO)C(=O)N[C@@H](CC(C)C)C(=O)N[C@@H](CC(=O)O)C(=O)N[C@@H](C(=O)N1CCC[C@H]1C(=O)N[C@H](C(=O)N[C@@H](CCCCN)C(=O)N[C@@](C)(CC(C)C)C(=O)N[C@@H](CCCCNC(=O)COCCOCCNC(=O)COCCOCCNC(=O)CC[C@H](NC(=O)CCCCCCCCCCCCCCCCC(=O)O)C(=O)O)C(=O)N[C@@H](CCCCN)C(=O)N[C@H](C(=O)N[C@@H](CC(C)C)C(=O)N[C@@H](CC(C)C)C(=O)N[C@@H](CCC(=O)O)C(=O)N[C@@H](CCC(N)=O)C(=O)N[C@@H](CCC(=O)O)C(=O)N[C@@H](CCCCN)C(=O)N[C@@H](CCC(N)=O)C(=O)N[C@@H](CCCCN)C(=O)N[C@@H](CCCCN)C(=O)N[C@@H](CCC(N)=O)C(=O)N[C@@H](CCCNC(=N)N)C(=O)N[C@@H](CCC(=O)O)C(=O)N[C@@H](CCC(N)=O)C(=O)N[C@@H](C)C(=O)N[C@@H](CCC(=O)O)C(=O)N[C@H](C(=O)N[C@@H](CC(N)=O)C(=O)NC(C)(C)C(=O)N[C@@H](CCC(N)=O)C(=O)N[C@H](C(=O)N[C@@H](CC(C)C)C(=O)N[C@@H](C)C(=O)N[C@@H](CCC(N)=O)C(=O)N[C@H](C(N)=O)C(C)C)[C@@H](C)CC)[C@@H](C)O)[C@@H](C)CC)[C@@H](C)CC)C(C)C)C(C)C [compound 110] (Ac-IVLSLD[dV]PIK[αMeL]K([AEEA-AEEA-γGlu-C18 diacid])KILLEQEKQKKQREQAETN[Aib]QILAQV-NH2) | 9 % I | > 250 nM | 3.88 µg·h/mL | 4.8 h | 5 h | – | 5 h | – | – | 106%

Results, then the molecule that gave them:

Row | Emax (% I) (CFR1R receptor) | EC50 (CFR1R receptor) | AUC(0-t) ([1]; IV, 0.05 mg/kg) | half-life ([1]; IV, 0.05 mg/kg) | Tmax ([1]; SC, 0.1 mg/kg) | remaining at 2 h (in vitro) | half-life ([1]; SC, 0.1 mg/kg) | EC50 (rat CRF2 a) | % remaining at 2 hours [2] | remaining at 2 h ([2]; pig, plasma) | Structure (SMILES)
4 | 24 % I | > 250 nM | 6.74 µg·h/mL | 11 h | 24 h | 102% | – | – | – | – | CC[C@H](C)[C@H](NC)C(=O)N[C@H](C(=O)N[C@@H](CC(C)C)C(=O)N[C@@H](CO)C(=O)N[C@@H](CC(C)C)C(=O)N[C@@H](CC(=O)O)C(=O)N[C@@H](C(=O)N1CCC[C@H]1C(=O)N[C@H](C(=O)N[C@@H](CCCCN)C(=O)N[C@@H](CC(C)C)C(=O)N[C@@H](CCCCNC(=O)CC[C@H](NC(=O)CCCCCCCCCCCCCCCCCCC(=O)O)C(=O)O)C(=O)N[C@@H](CCCCN)C(=O)N[C@H](C(=O)N[C@@H](CC(C)C)C(=O)N[C@@H](CC(C)C)C(=O)N[C@@H](CCC(=O)O)C(=O)N[C@@H](CCC(N)=O)C(=O)N[C@@H](CCC(=O)O)C(=O)N[C@@H](CCCCN)C(=O)N[C@@H](CCC(N)=O)C(=O)N[C@@H](CCCCN)C(=O)N[C@@H](CCC(=O)O)C(=O)N[C@@H](CCC(N)=O)C(=O)N[C@@H](CCCNC(=N)N)C(=O)N[C@@H](CCC(=O)O)C(=O)N[C@@H](CCC(N)=O)C(=O)N[C@@H](C)C(=O)N[C@@H](CCC(=O)O)C(=O)N[C@H](C(=O)N[C@@H](CC(N)=O)C(=O)NC(C)(C)C(=O)N[C@@H](CCC(N)=O)C(=O)N[C@H](C(=O)N[C@@H](CC(C)C)C(=O)N[C@@H](C)C(=O)N[C@@H](CCC(N)=O)C(=O)N[C@H](C(N)=O)C(C)C)[C@@H](C)CC)[C@@H](C)O)[C@@H](C)CC)[C@@H](C)CC)C(C)C)C(C)C [compound 218] (H-[NMeI]VLSLD[dV]PIKLK([γGlu-C20 diacid])KILLEQEKQKEQREQAETN[Aib]QILAQV-NH2)
5 | 42 % I | – | 8.11 µg·h/mL | 8 h | 8 h | – | 8 h | 0.06 nM | – | – | CC[C@H](C)[C@H](NC(C)=O)C(=O)N[C@H](C(=O)N[C@@H](CC(C)C)C(=O)N[C@@H](CO)C(=O)N[C@@H](CC(C)C)C(=O)N[C@@H](CC(=O)O)C(=O)N[C@@H](C(=O)N1CCC[C@H]1C(=O)N[C@H](C(=O)N[C@@H](CCCCN)C(=O)N[C@@H](CC(C)C)C(=O)N[C@@H](CCCCNC(=O)CC[C@H](NC(=O)CCCCCCCCCCCCCCCCCCC(=O)O)C(=O)O)C(=O)N[C@@H](CCCCN)C(=O)N[C@H](C(=O)N[C@@H](CC(C)C)C(=O)N[C@@H](CC(C)C)C(=O)N[C@@H](CCC(=O)O)C(=O)N[C@@H](CCC(N)=O)C(=O)N[C@@H](CCC(=O)O)C(=O)N[C@@H](CCCCN)C(=O)N[C@@H](CCC(N)=O)C(=O)N[C@@H](CCCCN)C(=O)N[C@@H](CCCCN)C(=O)N[C@@H](CCC(N)=O)C(=O)N[C@@H](CCCNC(=N)N)C(=O)N[C@@H](CCC(=O)O)C(=O)N[C@@H](CCC(N)=O)C(=O)N[C@@H](C)C(=O)N[C@@H](CCC(=O)O)C(=O)N[C@H](C(=O)N[C@@H](CC(N)=O)C(=O)NC(C)(C)C(=O)N[C@@H](CCC(N)=O)C(=O)N[C@H](C(=O)N[C@@H](CC(C)C)C(=O)N[C@@H](C)C(=O)N[C@@H](CCC(N)=O)C(=O)N[C@H](C(N)=O)C(C)C)[C@@H](C)CC)[C@@H](C)O)[C@@H](C)CC)[C@@H](C)CC)C(C)C)C(C)C [compound 206] (Ac-IVLSLD[dV]PIKLK([γGlu-C20 diacid])KILLEQEKQKKQREQAETN[Aib]QILAQV-NH2)
